The text below walks through data of patent publication US6096771A, “Isoxazole derivatives” (Sankyo Company, Limited, priority 1994, dated 2000).

One test has as its target T1, B-type monoamine oxidase (Mus musculus, UniProt Q8BW75).
T1 sequence (Q8BW75 1-520): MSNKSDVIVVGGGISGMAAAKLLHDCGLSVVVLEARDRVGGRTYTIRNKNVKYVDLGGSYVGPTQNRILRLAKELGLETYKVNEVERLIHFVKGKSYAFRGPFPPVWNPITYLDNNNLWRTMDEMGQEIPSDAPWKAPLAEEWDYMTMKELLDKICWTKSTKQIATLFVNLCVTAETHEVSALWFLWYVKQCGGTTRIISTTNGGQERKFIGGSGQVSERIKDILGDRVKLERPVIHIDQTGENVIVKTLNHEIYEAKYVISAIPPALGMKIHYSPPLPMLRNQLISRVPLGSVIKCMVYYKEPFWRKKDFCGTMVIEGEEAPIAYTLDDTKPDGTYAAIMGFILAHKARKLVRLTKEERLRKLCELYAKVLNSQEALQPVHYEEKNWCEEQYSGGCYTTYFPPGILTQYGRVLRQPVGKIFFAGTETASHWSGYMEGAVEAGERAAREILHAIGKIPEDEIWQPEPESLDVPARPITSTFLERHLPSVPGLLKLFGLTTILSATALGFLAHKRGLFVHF
The test can be described thus: Monoamine oxidase-inhibitory activity, B-type (crude mitochondria of mouse brain, 14C-2-phenylethylamine substrate). As to conditions: 14C-PEA 20 μM, pH 7.4, 38° C. It counts as biochemical.

For test [1] the following is noted: Farmaco, Ed. Sci., 23, 1081 (1968); 24, 440 (1969); cited from earlier work.
The conditions of test [2]: Farmaco, Ed. Sci., 23, 1081 (1968); 24, 440 (1969); cited from earlier work. The source holds these as a separate data set.

Structures can show the parent of a compound that is named as a salt.

On to `NCCOc1noc2ncccc12` [10(e), 3-(2-Aminoethoxy)pyrido[3,2-d]isoxazole Dihydrochloride], for which the IC50 (usually the concentration that inhibits the measured activity by half) at B-type monoamine oxidase (20 min preincubation) came to 10.2 nM.
The same measure, in the same setting: the same measure for `NCCOc1noc2ccc([N+](=O)[O-])cc12` [Example 8, 3-(2-Aminoethoxy)-5-nitro-1,2-benzisoxazole Hydrochloride]: 0.56 nM; for `NCCSc1noc2ccc(Cl)cc12` [Example 38, 3-(2-Aminoethylthio)-5-chloro-1,2-benzisoxazole hydrochloride]: 2.95 nM; for `NCCOc1noc2c(Cl)cccc12` [Example 9, 3-(2-Aminoethoxy)-7-chloro-1,2-benzisoxazole Hydrochloride]: 20 nM.
The same measure, in the same setting: under `NCCOc1noc2cc(Cl)ccc12` [Example 11, 3-(2-Aminoethoxy)-6-chloro-1,2-benzisoxazole Hydrochloride] stands 2.8 nM; under `NCCOc1noc2ccc(F)cc12` [Example 5, 3-(2-Aminoethoxy)-5-fluoro-1,2-benzisoxazole hydrochloride], 1.35 nM.
In turn, `NCCOc1noc2ccc(OC(F)F)cc12` [Example 44, 3-(2-Aminoethoxy)-5-difluoromethoxy-1,2-benzisoxazole hydrochloride] registered an IC50 against B-type monoamine oxidase (20 min preincubation) of 6 nM.
Same read-out and setting: the same measure for `Cc1cc(Cl)cc2c(SCCN)noc12` [Example 56, 3-(2-Aminoethylthio)-5-chloro-7-methyl-1,2-benzisoxazole hydrochloride]: 6.6 nM.
The same measure, in the same setting: under `NCCSc1noc2ccc([N+](=O)[O-])cc12` [Example 35, 3-(2-Aminoethylthio)-5-nitro-1,2-benzisoxazole hydrochloride] stands 9 nM; under `Cc1c(F)ccc2onc(OCCN)c12` [Example 17, 3-(2-Aminoethoxy)-5-fluoro-4-methyl-1,2-benzisoxazole Hydrochloride], 4.2 nM.
The same measure, in the same setting: the same measure for `Cc1ccc2c(OCCN)noc2c1` [Example 14, 3-(2-Aminoethoxy)-6-methyl-1,2-benzisoxazole Hydrochloride]: 21.5 nM.
With `CNCCOc1noc2ccccc12` [Compound A, 3(2-N-Methylamino)ethoxy-1,2-benzisoxazole, reference compound], the concentration for half-maximal inhibition (IC50) on B-type monoamine oxidase (reference compounds A and B) stood at 2350 nM.
On B-type monoamine oxidase (20 min preincubation), `Cc1ccc2onc(OCCN)c2c1` [Example 7, 3-(2-Aminoethoxy)-5-methyl-1,2-benzisoxazole Hydrochloride] had a half-inhibitory concentration (IC50) of 0.56 nM.
The same measure, in the same setting: the same measure for `Cc1ccc2onc(SCCN)c2c1` [Example 34, 3-(2-Aminoethylthio)-5-methyl-1,2-benzisoxazole hydrochloride]: 2.2 nM; for `NCCOc1noc2ccc(Cl)cc12` [Example 1, 3-(2-Aminoethoxy)-5-chloro-1,2-benzisoxazole hydrochloride]: 0.37 nM.
On the same count and under the same terms, the same measure for `NCCOc1noc2ncccc12` [10(f), 3-(2-Aminoethoxy)pyrido[3,2-d]isoxazole Hydrochloride]: 13.5 nM; for `N#Cc1cccc2onc(OCCN)c12` [Example 24, 3-(2-Aminoethoxy)-4-cyano-1,2-benzisoxazole hydrochloride]: 6.8 nM.
Same read-out and setting: under `COc1ccc2onc(OCCN)c2c1` [Example 6, 3-(2-Aminoethoxy)-5-methoxy-1,2-benzisoxazole hydrochloride] stands 5.6 nM.
On B-type monoamine oxidase (20 min preincubation), `NCCSc1noc2ccc(F)cc12` [Example 26, 3-(2-Aminoethylthio)-5-fluoro-1,2-benzisoxazole hydrochloride] yielded an IC50 of 2.7 nM.
For the compound `NCCOc1noc2ccccc12` [Example 2, 3-(2-Aminoethoxy)-1,2-benzisoxazole hydrochloride], the 50% inhibitory concentration (IC50) against B-type monoamine oxidase (20 min preincubation) came to 1.85 nM.
The same measure, in the same setting: the same measure for `Cc1cccc2c(OCCN)noc12` [Example 13, 3-(2-Aminoethoxy)-7-methyl-1,2-benzisoxazole Hydrochloride]: 27.5 nM; for `NCCOc1noc2ccc(Br)cc12` [Example 15, 3-(2-Aminoethoxy)-5-bromo-1,2-benzisoxazole Hydrochloride]: 0.32 nM.
Consider `CN(C)CCOc1noc2ccccc12` [Compound B, 3(2-N,NDimethylamino)ethoxy-1,2-benzisoxazole], for which, in test [1], the anti-inflammatory effects entry is listed as “possesses anti-inflammatory effects”. Besides, in test [2], the “local (infiltration) anaesthetic effect” value is recorded as “local (infiltration) anaesthetic effect”. On B-type monoamine oxidase (reference compounds A and B), this compound came in with an IC50 of 4700 nM.
Regarding `COc1ccc2onc(SCCN)c2c1` [Example 33, 3-(2-Aminoethylthio)-5-methoxy-1,2-benzisoxazole hydrochloride], at B-type monoamine oxidase (20 min preincubation), the IC50 was 4.5 nM.
`CSc1c(F)ccc2onc(OCCN)c12` [Example 21, 3-(2-Aminoethoxy)-5-fluoro-4-methylthio-1,2-benzisoxazole Hydrochloride] came in with a half-inhibitory concentration (IC50) against B-type monoamine oxidase (20 min preincubation) of 4.7 nM.
Still for that read-out and setting: the same measure for `NCCOc1noc2c(Cl)cc(Cl)cc12` [Example 12, 3-(2-Aminoethoxy)-5,7-dichloro-1,2-benzisoxazole Hydrochloride]: 26.5 nM.
Still for that read-out and setting: the same measure for `COC(=O)c1ccc2onc(OCCN)c2c1` [Example 42, 3-(2-Aminoethoxy)-5-methoxycarbonyl-1,2-benzisoxazole hydrochloride]: 18 nM.
